Source: patent US20240360153A1 (Regeneron Pharmaceuticals, Inc., priority 2023, published 2024)

How the values were obtained:
[1] = tested on: S6K1 (Thr389) phosphorylation (mTORC1 activity) in FKBP12 knock-out 293T cells; assay: Inhibition of S6K1 (Thr389) phosphorylation in FKBP12 knock-out 293T cells (ELISA); assay type: cell-based, human; details: for selectivity for FKBP12 compared with RAD001 (in words): wild-type versus FKBP12 knock-out cells; for inhibition at 10 µM: Homo sapiens, HEK-293T, 10 μM (highest tested concentration)
Source text: Example Generation of FKBP 12 knock-out cells. A CRISPR/Cas9 system was used to deliver ribonucleoprotein complexes containing guide RNA sequences that target FKBP12 (ac[…], location 1369062; ccactactcac[…], location 1369181) in HEK293T cells using Lipofectamine CRISPRMAX transfection reagent (Invitrogen CMAX00008). Cell clones were screened by immunoblotting with anti-FKBP-specific antibody (Novus, NB300-508). Single cells that were deficient for FKBP12 protein were selected and cloned.
(§1) Treatment of wild-type (WT) and FKBP12 knock-out 293T cells with RAD001 (everolimus) and test compounds. WT and FKBP12 knock-out 293T cells were cultured in Dulbecco's modified Eagle's medium (Gibco #11971-025) supplemented with 10% fetal bovine serum (Gibco #26140-079). Cells were plated at a density of 15,000 cells per well in poly-D-Lysine coated 96-well plates (Corning, #354461) and were incubated at 37° C., 5% CO2 for 24 hours until they reached ˜80% confluence. Cells were treated with RAD001 or test compounds reconstituted in dimethyl sulfoxide (DMSO) using a 8-11-point dose range, from 0.001 pM to 10 μM. All treatments were performed in duplicates for 2 hours at 37° C. Cell culture media supplemented with blank dimethyl sulfoxide (DMSO) was used as a negative control for all compounds. Phosphorylated amounts of S6K1 (Thr389) were measured using an ELISA kit (Invitrogen 85-86052-11), following the manufacture's protocol.
(§2) S6K1 is an immediate downstream target of mTORC1 and therefore phosphorylation of S6K1 at Thr389 residue is used to measure mTORC1 activity (PMID: 16968213). Amounts of phosphorylated S6K1 (Thr389) were measured in WT and FKBP12 knock-out 293T cells treated with either RAD001 or Compound 44 (FIGS. 1A and 1B), and Compound 45 (FIGS. 1C and 1D).

[2] = tested on: S6K1 (Thr389) phosphorylation (mTORC1 activity) in wild-type (WT) 293T cells; assay: Inhibition of S6K1 (Thr389) phosphorylation in wild-type 293T cells (ELISA); assay type: cell-based, human; details: for IC50: Homo sapiens, HEK-293T, 2 h, wild-type 293T cells, 2 hours treatment; for fold lower potency compared with RAD001 (by IC50) / extent of inhibition of S6K1 (Thr389) phosphorylation: wild-type cells; for extent of inhibition of S6K1 (Thr389) phosphorylation: with increasing concentrations
Experimental: as §1, §2

[3] = In vitro microsomal metabolic stability, human liver microsomes; assay type: in vitro ADME; details: for Remaining (T = 60 min): with NADPH; for Remaining (T = NCF60 min): without NADPH regenerating system; for Remaining (T = 60 min) / Remaining (T = NCF60 min): 60 min
Experimental: (§3) Buffers: PBK Buffer: 50 mM potassium phosphate buffer (PPB), pH 7.2, with 3.3 mM Magnesium Chloride.
(§4) TA Intermediate solution: Compound or control (3 μL) diluted from stock solution (10 mM) with 297 μL 90.0% methanol/water. (Conc: 100 μM; 1.0% DMSO, 89.1% MeOH).
(§5) Control cocktail intermediate solution: Each control (3 μL) was diluted with 291 μL 90.0% methanol/water.
(§6) Diluted TA intermediate stock solution and PC control stock were made by transferring 80 μL of 100 μM TA stock solution into new tubes and then adding 720 μL of 1.0% DMSO in 50 mM potassium phosphate buffer (conc. 10 μM; 1.0% DMSO, 8.91% MeOH).
(§7) Preparation of Liver microsomes working solution (1.25×)(final Conc.: 0.5 mg/mL).
(§8) Acetonitrile:methanol (9:1, v/v)(including 200 ng/mL tolbutamide and 200 ng/ml labetalol hydrochloride as internal standards).
(§9) Working solution: Intermediate solution (80 μL) was diluted with 720 μL 1.0% DMSO in 50 mM potassium phosphate buffer (Conc.: 10 μM; 1.0% DMSO, 8.91% MeOH)
(§10) Procedure: Stock solution was added to each of the time point plates. Microsomes solution (360 μL/well), TA/PC (45 μL/well), and NADPH (45 μL/well) min. (Conc: 1.0 μM, 0.10% DMSO, 0.891% MeOH) were added to the incubation plates. To the T60 and NCF60 plate, TA (15 ul/well) and Microsomes (120 ul) were added. To the blank plate, microsome (50 ul/well) with stop solution (150 ul/well) were added. At the end of each time point, 50 ul/well was aliquoted from the incubation plate. The sampling plates were shaken for approximately 10 min. on a shaker and the samples were centrifuged at 4000 rpm for 15 min. Supernatant (120 μL) was transferred for LC/MS/MS.Compounds from Table 3 were incubated at 37° C. with liver microsomes (pooled from multiple donors) at 1 μM in the presence of a NADPH regenerating system at 0.5 mg/ml microsomal protein. Positive controls included testosterone (3A4 substrate), propafenone (2D6) and diclofenac (2C9), which were incubated with microsomes in the presence of an NADPH regenerating system. At time points (0, 5, 10, 20, 30 and 60 minutes), samples were removed and immediately mixed with cold acetonitrile containing the internal standard (IS). Test compounds incubated with microsomes without the NADPH regenerating system for 60 min are also included. A single point for each test condition (n=1) was obtained, and samples were analyzed by LC/MS/MS. Disappearance of the test compound was assessed based on peak area ratios of analyte/IS (no standard curve).

[4] = In vitro microsomal metabolic stability, CD-1 mouse liver microsomes; assay type: in vitro ADME; details: for Remaining (T = 60 min): with NADPH; for Remaining (T = NCF60 min): without NADPH regenerating system; for Remaining (T = 60 min) / Remaining (T = NCF60 min): 60 min
Experimental: as §3, §4, §5, §6, §7, §8, §9, §10

[5] = human, human liver microsomes, pH 7.2
[6] = CD-1, mouse, mouse liver microsomes, pH 7.2
[7] = Mouse liver microsomes, 1 μM, 0.5 mg/ml protein, NADPH

Compound	inhibition of S6K1 (Thr389) phosphorylation in the absence of FKBP12 (in words) ([1]; FKBP12 knock-out cells)	selectivity for FKBP12 compared with RAD001 (in words) [1]	IC50 [2]	fold lower potency compared with RAD001 (by IC50) [2]	extent of inhibition of S6K1 (Thr389) phosphorylation [2]	Remaining (T = 60 min) ([4]; Mouse liver microsomes)	Remaining (T = NCF60 min) ([4]; Mouse liver microsomes)	also measured
CO[C@@H]1C[C@H](C[C@@H](C)[C@@H]2CC[C@H](C)/C=C(\C)[C@@H](O)[C@@H](OC)C(=O)[C@H](C)C[C@H](C)/C=C/C=C/C=C(\C)C(Nc3cnccn3)C[C@@H]3CC[C@@H](C)[C@@](O)(O3)C(=O)C(=O)N3CCCCC3C(=O)O2)CC[C@H]1O (stereo partly shown) [Compound 52]	did not inhibit S6K1 (Thr389)phosphorylation at any tested concentrations	selective to FKBP12	9.15 nM	25 fold	near complete inhibition			
CO[C@@H]1C[C@H](C[C@@H](C)[C@@H]2CC[C@H](C)/C=C(\C)[C@@H](O)[C@@H](OC)C(=O)[C@H](C)C[C@H](C)/C=C/C=C/C=C(\C)C(Nc3ccsc3)C[C@@H]3CC[C@@H](C)[C@@](O)(O3)C(=O)C(=O)N3CCCCC3C(=O)O2)CC[C@H]1O (stereo partly drawn) [Compound 60, (3S,6S,7E,9R,10R,12R,14S,15E,17E,19E,23S,26R,27R,34aS)-9,27-dihydroxy-3-((R)-1-((1S,3R,4R)-4-hydroxy-3-methoxycyclohexyl)propan-2-yl)-10-methoxy-6,8,12,14,20,26-hexamethyl-21-(thiophen-3-ylamino)-5,6,9,10,12,13,14,21,22,23,24,25,26,27,32,33,34,34a-octadecahydro-3H-23,27-epoxypyrido[2,1-c][1]oxa[4]azacyclohentriacontine-1,11,28,29(4H,31H)-tetraone]						5.6%	75%	Remaining (T = 60 min) ([3]; Human liver microsomes): 6.6%; Remaining (T = NCF60 min) ([3]; Human liver microsomes): 99%; CLint scaled at 1 µM [3, 5]: 80.4 mL/min/kg; microsomal CLint at 1 µM [3, 5]: 89.3 µL/min/mg; half-life at 1 µM ([3]; pH 7.2, Human liver microsomes, 1 μM, 0.5 mg/ml protein, NADPH): 16 min; CLint scaled at 1 µM [4, 6]: 370 mL/min/kg; microsomal CLint at 1 µM [4, 6]: 93.5 µL/min/mg; half-life at 1 µM ([4]; CD-1, pH 7.2, Mouse liver microsomes, 1 μM, 0.5 mg/ml protein, NADPH): 14.8 min
COC1C(=O)[C@H](C)C[C@H](C)/C=C/C=C/C=C(\C)C(NS(=O)(=O)c2cccc(C)c2)C[C@@H]2CC[C@@H](C)[C@@](O)(O2)C(=O)C(=O)N2CCCC[C@H]2C(=O)OC([C@H](C)CC2CC[C@@H](O)C(OC)C2)CC[C@H](C)/C=C(\C)C1O (stereo partly drawn) [Compound 72, N-((3S,6S,7E,9R,10R,12R,14S,15E, 17E,19E,23S,26R,27R,34aS)-9,27-dihydroxy-3-((R)-1-((1S,3R,4R)-4-hydroxy-3-methoxycyclohexyl)propan-2-yl)-10-methoxy-6,8,12,14,20,26-hexamethyl-1,11,28,29-tetraoxo-1,4,5,6,9,10,11,12,13,14,21,22,23,24,25,26,27,28,29,31,32,33,34,34a-tetracosahydro-3H-23,27-epoxypyrido[2,1-c][1]oxa[4]azacyclohentriacontin-21-yl)-3-methylbenzenesulfonamide]	inhibited S6K1 (Thr389)phosphorylation in a dose dependent manner		0.914 nM	5.2 fold	near complete inhibition			inhibition at 10 µM ([1]; FKBP12 knock-out cells): 40%
COc1ccc(NC2C[C@@H]3CC[C@@H](C)[C@@](O)(O3)C(=O)C(=O)N3CCCCC3C(=O)O[C@H]([C@H](C)C[C@@H]3CC[C@@H](O)[C@H](OC)C3)CC[C@H](C)/C=C(\C)[C@@H](O)[C@@H](OC)C(=O)[C@H](C)C[C@H](C)/C=C/C=C/C=C/2C)cc1 (stereo partly drawn) [Compound 47, (3S,6S,7E,9R,10R,12R,14S,15E,17E,19E,23S,26R,27R,34aS)-9,27-dihydroxy-3-((R)-1-((1S,3R,4R)-4-hydroxy-3-methoxycyclohexyl)propan-2-yl)-10-methoxy-21-((4-methoxyphenyl)amino)-6,8,12,14,20,26-hexamethyl-5,6,9,10,12,13,14,21,22,23,24,25,26,27,32,33,34,34a-octadecahydro-3H-23,27-epoxypyrido[2,1-c][1]oxa[4]azacyclohentriacontine-1,11,28,29(4H,31H)-tetraone]	did not inhibit S6K1 (Thr389)phosphorylation at any tested concentrations	relatively more selective to FKBP12 compared with RAD001	69 nM	219 fold	near complete inhibition			
CO[C@H]1C[C@@H]2CC[C@@H](C)[C@@](O)(O2)C(=O)C(=O)N2CCCC[C@H]2C(=O)O[C@H]([C@H](C)C[C@@H]2CC[C@@H](O)[C@H](OC)C2)CC[C@H](C)/C=C(\C)[C@@H](O)[C@@H](OC)C(=O)[C@H](C)C[C@H](C)/C=C/C=C/C=C/1C [32-Deoxo Rapamycin, 32-deoxorapamycin, reference compound]						36%	110%	CL ([3]; Human liver microsomes): 405 µL/min/mg; CLint ([3]; Human liver microsomes): 364 mL/min/kg; T1/2 ([3]; Human liver microsomes, 1 μM, 0.5 mg/ml protein, NADPH): 3.4 min; Remaining (T = 60 min) ([3]; Human liver microsomes): 0.00%; Remaining (T = NCF60 min) ([3]; Human liver microsomes): 96%; CL ([4]; Mouse liver microsomes): 35.1 µL/min/mg; CLint ([4]; Mouse liver microsomes): 139 mL/min/kg; T1/2 [4, 7]: 39.5 min
COC1C(=O)[C@H](C)C[C@H](C)/C=C/C=C/C=C(\C)C(N(C)S(=O)(=O)c2ccccc2)C[C@@H]2CC[C@@H](C)[C@@](O)(O2)C(=O)C(=O)N2CCCC[C@H]2C(=O)OC([C@H](C)CC2CC[C@@H](O)C(OC)C2)CC[C@H](C)/C=C(\C)C1O (stereo partly drawn) [Compound 73, N-((3S,6S,7E,9R,10R,12R,14S,15E, 17E,19E,23S,26R,27R,34aS)-9,27-dihydroxy-3-((R)-1-((1S,3R,4R)-4-hydroxy-3-methoxycyclohexyl)propan-2-yl)-10-methoxy-6,8,12,14,20,26-hexamethyl-1,11,28,29-tetraoxo-1,4,5,6,9,10,11,12,13,14,21,22,23,24,25,26,27,28,29,31,32,33,34,34a-tetracosahydro-3H-23,27-epoxypyrido[2,1-c][1]oxa[4]azacyclohentriacontin-21-yl)-N-methylbenzenesulfonamide]		not FKBP12 selective	2.22 nM	13 fold	near complete inhibition			concentration achieving 20% inhibition of S6K1 (Thr389) phosphorylation ([1]; FKBP12 knock-out cells): 2.7 nM; inhibition at 10 µM ([1]; FKBP12 knock-out cells): ~60%
Rapamycin [reference compound]						27%	102%	CL ([4]; Mouse liver microsomes): 43.1 µL/min/mg; CLint ([4]; Mouse liver microsomes): 171 mL/min/kg; T1/2 [4, 7]: 32.1 min
